Assay results: US20240018146A1, “COMPOSITIONS AND METHODS OF USING THE SAME FOR TREATMENT OF NEURODEGENERATIVE AND MITOCHONDRIAL DISEASE” (MITOKININ, INC., priority 2020, published 2024)
Read-outs that look alike come from different tables or passages of the source.

Columns and labels:
HeLa MKYP cells [1] = assay: Human mitophagy assay (HeLa mKeima assay, FACS); format: cell-based; details: read-out: Mitophagy induction EC50
Description: Briefly, HeLa MKYP cells were plated at 10,000 cells/well in 96 well plates along with compounds at various concentrations. Following 16 hrs of incubation, cells were treated with 1 uM FCCP/oligomycin for 6 hours, then analyzed via FACS for the presence of mitochondria in lysosomes (as determined by an emissions spectrum shift from the pH-sensitive mtKeima tag).
Briefly, HeLa cells expressing a mitophagy indicator (mtKeima) protein were treated with […] of FCCP and Oligomycin followed by the specified dose of compound, then analyzed by FACS to quantify the percentage of cells undergoing mitophagy.

HeLa MKYP cells [2] = assay: Cell death measured by DAPI staining, with 1 μM FCCP/oligomycin or no toxin (no FO); format: cell-based
Description: EP-0035985, EP-0037821, EP-0038098, and EP-0038099 in the presence of 1 μM FCCP/oligomycin or with no toxin (no FO) for 6 hrs. H2O2 treatment was performed as a control for cell death as measured by DAPI staining.
EP-0035985, EP-0038461, EP-0038463, and EP-0038503 in the presence of 1 μM FCCP/oligomycin or with no toxin (no FO) for 6.5 hrs. H2O2 treatment was performed as a control for cell death as measured by DAPI staining.
EP-0035985, EP-0038504, EP-0038508, and EP-0038521 in the presence of 1 μM FCCP/oligomycin or with no toxin (no FO) for 6.5 hrs. H2O2 treatment was performed as a control for cell death as measured by DAPI staining.
EP-0035985, EP-0038461, EP-0038463, EP-0038503, EP-0038504, EP-0038508, and EP-0038521 in the presence of 1 μM FCCP/oligomycin or with no toxin (no FO) for 6.5 hrs. H2O2 treatment was performed as a control for cell death as measured by DAPI staining.

Structure (SMILES)	EC50 (HeLa MKYP cells [1]; Homo sapiens, HeLa) [µM]	Highest safe dose (cytotoxicity; no FO; safe means DAPI+ <20%) (HeLa MKYP cells [2]) [µM]	Max % death with 1 μM FO (HeLa MKYP cells [2]) [%]	EC50 (HeLa MKYP cells [1]) [µM]
OC[C@H]1CCN(C2CCc3ccccc3C2Nc2ncnc3[nH]c(C(F)(F)F)cc23)C1 (mixture of isomers) [EP-0040121]	1.29	25.0	33.6	–
Cc1ccc2c(c1)OC[C@H](N1CCOCC1)[C@H]2Nc1ncnc2[nH]c(C(F)(F)F)cc12 (racemic) [EP-0041045]	1.56	25.0	7.7	–
[2H]C([2H])([2H])OC1CN([C@@H]2COc3ccccc3[C@H]2Nc2ncnc3[nH]c(C(F)(F)F)cc23)C1 (racemic) [EP-0041327]	> 25	25.0	4.1	–
FC(F)OC1CN([C@H]2COc3ccccc3[C@@H]2Nc2ncnc3[nH]c(C(F)(F)F)cc23)C1 (racemic) [EP-0041354]	–	25.0	12.4	1.08
FC(F)OC1CN([C@H]2COc3ccccc3[C@@H]2Nc2ncnc3[nH]c(C(F)(F)F)cc23)C1 (racemic) [EP-0041542]	–	25.0	3.8	> 25
FC1(F)CN(C2COc3ccccc3C2Nc2ncnc3[nH]c(C4CC4)cc23)C1 (racemic) [EP-0041566]	1	25.0	30.0	–
CC(=O)N1CCN(C2COc3ccccc3C2Nc2ncnc3[nH]c(C4CC4)cc23)CC1 (racemic) [EP-0041596]	2.72	25.0	15.3	–
CN1CCN(C2COc3ccccc3C2Nc2ncnc3[nH]c(C4CC4)cc23)CC1=O (racemic) [EP-0041600]	> 25	25.0	4.9	–
FC(F)(F)c1cc2c(N[C@H]3c4ccccc4CC[C@@H]3OCC3CCOCC3)ncnc2[nH]1 (single isomer, unassigned) [EP-0038523]	4.45	25.0	3.3	–
OC[C@@H]1CCCN1[C@H]1CCc2ccccc2[C@@H]1Nc1ncnc2[nH]c(C(F)(F)F)cc12 (single isomer, unassigned) [EP-0039732]	> 25	25.0	6.2	–
FC(F)(F)c1cc2c(N[C@H]3c4ccccc4CC[C@H]3OC3CCOCC3)ncnc2[nH]1 (single isomer, unassigned) [EP-0039733]	9.33	25.0	3.1	–
c1ccc2c(c1)OC[C@@H](N1CCOCC1)[C@@H]2Nc1ncnc2[nH]c(C3CC3)cc12 (single isomer, unassigned) [EP-0040181]	> 25	25.0	5.9	–
C[C@H]1COCCN1[C@@H]1CCc2ccccc2[C@H]1Nc1ncnc2[nH]c(C(F)(F)F)cc12 (single isomer, unassigned) [EP-0040182]	–	25.0	26.8	21.2
C[C@H]1COCCN1[C@@H]1CCc2ccccc2[C@H]1Nc1ncnc2[nH]c(C(F)(F)F)cc12 (single isomer, unassigned) [EP-0040193]	–	25.0	29.7	9.46
C[C@@H]1COCCN1[C@@H]1CCc2ccccc2[C@H]1Nc1ncnc2[nH]c(C(F)(F)F)cc12 (single isomer, unassigned) [EP-0040195]	18.5	25.0	12.0	–
C[C@@H]1COCCN1[C@@H]1CCc2ccccc2[C@H]1Nc1ncnc2[nH]c(C(F)(F)F)cc12 (single isomer, unassigned) [EP-0040197]	–	25.0	8.4	22.7
c1ccc2c(c1)CC[C@H](N1C[C@H]3COC[C@H]3C1)[C@H]2Nc1ncnc2[nH]c(C3CC3)cc12 (single isomer, unassigned) [EP-0040248]	> 25	25.0	3.7	–
c1ccc2c(c1)CC[C@@H](N1C[C@H]3COC[C@H]3C1)[C@@H]2Nc1ncnc2[nH]c(C3CC3)cc12 (single isomer, unassigned) [EP-0040249]	0.09	25.0	12.3	–
FC(F)(F)c1cc2c(N[C@H]3c4ccccc4OC[C@@H]3N3CCOCC3)ncnc2[nH]1 (single isomer, unassigned) [EP-0040251]	> 25	25.0	3.1	–
Fc1ccc2c(c1)OC[C@H](N1C[C@H]3COC[C@H]3C1)[C@H]2Nc1ncnc2[nH]c(C(F)(F)F)cc12 (single isomer, unassigned) [EP-0040268]	> 25	25.0	3.2	–
Fc1ccc2c(c1)OC[C@H](N1C[C@H]3COC[C@H]3C1)[C@H]2Nc1ncnc2[nH]c(C3CC3)cc12 (single isomer, unassigned) [EP-0040326]	–	25.0	3.6	> 25
C[C@@H]1COCCN1[C@H]1CCc2ccccc2[C@@H]1Nc1ncnc2[nH]c(C3CC3)cc12 (single isomer, unassigned) [EP-0040339]	> 25	25.0	16.5	–
C[C@@H]1COCCN1[C@H]1CCc2ccccc2[C@@H]1Nc1ncnc2[nH]c(C3CC3)cc12 (single isomer, unassigned) [EP-0040358]	–	2.8	97.8	> 25
c1ccc2c(c1)OC[C@H](N1C[C@H]3COC[C@H]3C1)[C@H]2Nc1ncnc2[nH]c(C3CC3)cc12 (single isomer, unassigned) [EP-0040391]	> 25	25.0	3.9	–
C[C@@H]1CN([C@@H]2CCc3ccccc3[C@H]2Nc2ncnc3[nH]c(C(F)(F)F)cc23)CCO1 (single isomer, unassigned) [EP-0040492]	> 25	25.0	1.8	–
C[C@@H]1CN([C@@H]2CCc3ccccc3[C@H]2Nc2ncnc3[nH]c(C(F)(F)F)cc23)C[C@H](C)O1 (single isomer, unassigned) [EP-0040494]	> 25	25.0	4.1	–
C[C@@H]1CN([C@@H]2CCc3ccccc3[C@H]2Nc2ncnc3[nH]c(C4CC4)cc23)CCO1 (single isomer, unassigned) [EP-0040497]	6.97	25.0	4.3	–
C[C@@H]1CN([C@@H]2CCc3ccccc3[C@H]2Nc2ncnc3[nH]c(C4CC4)cc23)C[C@H](C)O1 (single isomer, unassigned) [EP-0040499]	5.2	25.0	4.3	–
Fc1ccc2c(c1)OC[C@@H](N1CCOCC1)[C@@H]2Nc1ncnc2[nH]c(C3CC3)cc12 (single isomer, unassigned) [EP-0040501]	14.3	25.0	5.0	–
